Reference: patent US20260256807A1, “SUBSTITUTED PYRAZOLES AND IMIDAZOLES AS OREXIN RECEPTOR ANTAGONISTS COMPOSITION, METHODS FOR TREATING NEUROLOGICAL AND PSYCHOLOGICAL DISORDERS” (HAGER BIOSCIENCES, LLC, priority 2022, published 2026)

The molecules below were run against T1, human orexin-1 receptor (Homo sapiens, UniProt O43613) (assay: Intracellular calcium (FLIPR) antagonist assay, CHO cells expressing human orexin-1 receptor, 3 nM orexin-A). Conditions: 1 uM compound, orexin-A 3 nM.
T1 construct: expressed in transfected cells; host or cells: CHO cells (G418 selection)
T1 sequence (O43613 1-425): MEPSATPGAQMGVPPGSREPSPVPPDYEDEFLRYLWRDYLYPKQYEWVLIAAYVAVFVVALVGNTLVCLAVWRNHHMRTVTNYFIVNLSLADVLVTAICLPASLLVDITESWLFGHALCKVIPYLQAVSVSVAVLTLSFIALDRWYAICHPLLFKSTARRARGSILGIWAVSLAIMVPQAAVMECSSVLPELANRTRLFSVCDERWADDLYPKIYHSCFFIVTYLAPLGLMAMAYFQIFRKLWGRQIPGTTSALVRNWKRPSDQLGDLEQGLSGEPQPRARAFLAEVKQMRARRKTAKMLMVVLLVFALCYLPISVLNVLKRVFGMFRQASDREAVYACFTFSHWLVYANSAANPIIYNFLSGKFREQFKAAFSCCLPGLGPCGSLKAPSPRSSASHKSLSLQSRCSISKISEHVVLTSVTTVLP
Type: cell-based
Description: (§1) Antagonistic activities on both orexin receptors (i.e., to identify Orexin Receptor Antagonists) have been measured for each example compound using the in vitro assays (intracellular calcium measurements) as described herein. Other assays may also be used to identify Orexin Receptor Antagonists as would be understood by those of ordinary skill in the art. Chinese hamster ovary (CHO) cells expressing the human orexin-1 receptor and the human orexin-2 receptor, respectively, are grown in culture medium (Ham F-12 with L-Glutamine) containing 300 μg/mL G418, 100 U/mL penicillin, 100 μg/mL streptomycin and 10% heat inactivated fetal calf serum (FCS). The cells are seeded at 20′000 cells/well into 384-well black clear bottom sterile plates (Greiner). The seeded plates are incubated overnight at 37° C. in 5% CO2. Human orexin-A as an agonist is prepared as 1 mM stock solution in MeOH: water (1:1), diluted in HBSS containing 0.1% bovine serum albumin (BSA), NaHC03: 0.375 g/L and 20 mM HEPES for use in the assay at a final concentration of 3 nM.
(§2) Antagonists were prepared as 10 mM stock solution in DMSO, then diluted in 384-well plates using DMSO followed by a transfer of the dilutions into in HBSS containing 0.1% bovine serum albumin (BSA), NaHC03: 0.375 g/L and 20 mM HEPES. On the day of the assay, 50 μL of staining buffer (HBSS containing 1% FCS, 20 mM HEPES, NaHC03: 0.375 g/L, 5 mM probenecid (Sigma) and 3 μM of the fluorescent calcium indicator fluro-4 AM (1 mM stock solution in DMSO, containing 10% pluronic) is added to each well. The 384-well cell-plates are incubated for 50 min at 37° C. in 5% C02 followed by equilibration at RT for 30 min before measurement. Within the Fluorescent Imaging Plate Reader (FLIPR Tetra, Molecular Devices), potential Orexin Receptor Antagonists were added to the plate in a volume of 10 μl/well, incubated for 120 min and finally 10 μL/well of agonist is added. Fluorescence was measured for each well at 1 second intervals, and the height of each fluorescence peak compared to the height of the fluorescence peak induced by 3 nM orexin-A with vehicle in place of antagonist. The IC50 value (the concentration of compound needed to inhibit 50% of the agonistic response) was determined and normalized using the obtained IC50 value of an on-plate reference compound. Optimized conditions were achieved by adjustment of pipetting speed and cell splitting regime. The calculated IC50 values fluctuate depending on the daily cellular assay performance, as is known to those skilled in the art. In the case where IC50 values have been determined several times for the same compound, the geometric mean has been given.

Compound	OXIR % Inh. @ 1 uM [%]
COc1ccc(N2CC[C@@H](C)N(C(=O)c3c(-c4ccccn4)nn4ccccc34)CC2)nc1 [Example 81]	76
COc1ccc(N2CC[C@@H](C)N(C(=O)c3c(-c4ccccn4)nn4ccccc34)CC2)nc1 [Example 93]	36
C[C@@H]1CCN(c2cnc(C(F)(F)F)cn2)CCN1C(=O)c1c(-c2ncccn2)nn2ccccc12 [Example 94]	43
C[C@@H]1CCN(c2cnc(C(F)(F)F)cn2)CCN1C(=O)c1c(-c2ccccn2)nn2ccccc12 [Example 95]	86

Same assay, conditions: CHO, 1 uM compound, orexin-A 3 nM, read-out: OXIR % Inh. @ 1 uM

Compound	inhibition at 1 µM [%]
C[C@@H]1CCN(c2nc3cc(Cl)ccc3o2)CCN1C(=O)c1c(-c2ccccc2)nn2cccnc12 [Example 65]	99
C[C@@H]1CCN(c2ccc(C(F)(F)F)cn2)CCN1C(=O)c1c(-c2ccccc2)nn2cccnc12 [Example 66]	99
C[C@@H]1CCN(c2nc3cc(Cl)ccc3o2)CCN1C(=O)c1nn2cccnc2c1-c1ccccc1 [Example 67]	99
C[C@@H]1CCN(c2ccc(C(F)(F)F)cn2)CCN1C(=O)c1nn2cccnc2c1-c1ccccc1 [Example 68]	100
Cc1cc(C)nc(N2CC[C@@H](C)N(C(=O)c3nc4ccccn4c3-c3ccccc3)CC2)n1 [Example 69]	23
Cc1cc(C)nc(N2CC[C@@H](C)N(C(=O)c3nn4c(c3-c3ccccc3)COCC4)CC2)n1 [Example 70]	27
Cc1cc(C)nc(N2CC[C@@H](C)N(C(=O)c3nn4ccccc4c3-c3ccccc3)CC2)n1 [Example 71]	75
Cc1cc(C)nc(N2CC[C@@H](C)N(C(=O)c3c(-c4ccccc4)nn4c3COCC4)CC2)n1 [Example 72]	28
Cc1cc(C)nc(N2CC[C@@H](C)N(C(=O)c3c(-c4ccccc4)nc4ccccn34)CC2)n1 [Example 73]	65
Cc1cc(C)nc(N2CC[C@@H](C)N(C(=O)c3nn4cccnc4c3-c3ccccc3)CC2)n1 [Example 74]	74
Cc1cc(C)nc(N2CC[C@@H](C)N(C(=O)c3c(-c4ccccn4)nn4ccccc34)CC2)n1 [Example 75]	79
COc1ccc(N2CC[C@@H](C)N(C(=O)c3nn4c(c3-c3ccccc3)COCC4)CC2)nc1 [Example 76]	23
COc1ccc(N2CC[C@@H](C)N(C(=O)c3nc4ccccn4c3-c3ccccc3)CC2)nc1 [Example 77]	38
COc1ccc(N2CC[C@@H](C)N(C(=O)c3nn4ccccc4c3-c3ccccc3)CC2)nc1 [Example 78]	90

These molecules were tested against T2, human orexin-2 receptor (Homo sapiens, UniProt O43614) (assay: Intracellular calcium (FLIPR) antagonist assay, CHO cells expressing human orexin-2 receptor, 3 nM orexin-A). Conditions: 1 uM compound, orexin-A 3 nM.
T2 construct: expressed in transfected cells; host or cells: CHO cells (G418 selection)
T2 sequence (O43614 1-444): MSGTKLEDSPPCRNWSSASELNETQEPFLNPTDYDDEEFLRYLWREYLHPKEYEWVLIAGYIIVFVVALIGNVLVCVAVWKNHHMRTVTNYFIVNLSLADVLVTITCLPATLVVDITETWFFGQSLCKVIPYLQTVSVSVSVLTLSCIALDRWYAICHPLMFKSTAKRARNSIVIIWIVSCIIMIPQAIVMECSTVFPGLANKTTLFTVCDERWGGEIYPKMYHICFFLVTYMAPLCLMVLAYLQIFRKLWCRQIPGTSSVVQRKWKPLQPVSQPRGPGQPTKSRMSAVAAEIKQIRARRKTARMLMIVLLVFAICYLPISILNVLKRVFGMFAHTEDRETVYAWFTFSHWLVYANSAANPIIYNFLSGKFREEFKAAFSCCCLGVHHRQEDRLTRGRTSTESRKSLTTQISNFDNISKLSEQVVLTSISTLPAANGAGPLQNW
Type: cell-based
Description: as §1, §2

Compound	OX2R % Inh. @ 1uM [%]
COc1ccc(N2CC[C@@H](C)N(C(=O)c3c(-c4ccccn4)nn4ccccc34)CC2)nc1 [Example 93]	33
C[C@@H]1CCN(c2cnc(C(F)(F)F)cn2)CCN1C(=O)c1c(-c2ncccn2)nn2ccccc12 [Example 94]	21
C[C@@H]1CCN(c2cnc(C(F)(F)F)cn2)CCN1C(=O)c1c(-c2ccccn2)nn2ccccc12 [Example 95]	61

Same assay, conditions: CHO, 1 uM compound, orexin-A 3 nM, read-out: OX2R % Inh. @ 1uM

Compound	inhibition at 1 µM [%]
C[C@@H]1CCN(c2nc3cc(Cl)ccc3o2)CCN1C(=O)c1c(-c2ccccc2)nn2cccnc12 [Example 65]	80
C[C@@H]1CCN(c2ccc(C(F)(F)F)cn2)CCN1C(=O)c1c(-c2ccccc2)nn2cccnc12 [Example 66]	83
C[C@@H]1CCN(c2nc3cc(Cl)ccc3o2)CCN1C(=O)c1nn2cccnc2c1-c1ccccc1 [Example 67]	80
C[C@@H]1CCN(c2ccc(C(F)(F)F)cn2)CCN1C(=O)c1nn2cccnc2c1-c1ccccc1 [Example 68]	68
Cc1cc(C)nc(N2CC[C@@H](C)N(C(=O)c3nc4ccccn4c3-c3ccccc3)CC2)n1 [Example 69]	34
Cc1cc(C)nc(N2CC[C@@H](C)N(C(=O)c3nn4c(c3-c3ccccc3)COCC4)CC2)n1 [Example 70]	44
Cc1cc(C)nc(N2CC[C@@H](C)N(C(=O)c3nn4ccccc4c3-c3ccccc3)CC2)n1 [Example 71]	96
Cc1cc(C)nc(N2CC[C@@H](C)N(C(=O)c3c(-c4ccccc4)nn4c3COCC4)CC2)n1 [Example 72]	65
Cc1cc(C)nc(N2CC[C@@H](C)N(C(=O)c3c(-c4ccccc4)nc4ccccn34)CC2)n1 [Example 73]	95
Cc1cc(C)nc(N2CC[C@@H](C)N(C(=O)c3nn4cccnc4c3-c3ccccc3)CC2)n1 [Example 74]	95
Cc1cc(C)nc(N2CC[C@@H](C)N(C(=O)c3c(-c4ccccn4)nn4ccccc34)CC2)n1 [Example 75]	100
COc1ccc(N2CC[C@@H](C)N(C(=O)c3nn4c(c3-c3ccccc3)COCC4)CC2)nc1 [Example 76]	11
COc1ccc(N2CC[C@@H](C)N(C(=O)c3nc4ccccn4c3-c3ccccc3)CC2)nc1 [Example 77]	16
COc1ccc(N2CC[C@@H](C)N(C(=O)c3nn4ccccc4c3-c3ccccc3)CC2)nc1 [Example 78]	52
COc1ccc(N2CC[C@@H](C)N(C(=O)c3c(-c4ccccn4)nn4ccccc34)CC2)nc1 [Example 81]	47
